Data as given in patent US20250263405A1, “HISTONE DEACETYLASE 6 INHIBITOR COMPOUNDS AND USES THEREOF” (VALO HEALTH, INC., priority 2021, published 2025).
pIC50: −log10 of the molar value.

Target: HDAC6 (Homo sapiens (Human), UniProt Q9UBN7)
Experiment: HDAC6 TR-FRET displacement assay
Type: binding
Conditions: displacement of fluorescein labeled tracer from HDAC6; 2 nM HDAC6, 1 nM tracer, 0.5 nM Tb-anti-GST antibody; 30 min pre-incubation, 6 hours at 25° C.
Excerpt: HDAC6 and Tb-anti-GST antibody were purchased from Signal Chem (cat #PC124) and Cisbio (cat #61GSTTAH), respectively. HEPES, pH 7.5 was purchased from Teknova (Cat #H1575). All other buffer components, NaCl (cat #S5150), KCl (cat #60121), Triton X-100 (cat #T9284), GSH (cat #G4251), BGG (cat #G5009), and BSA (cat #A2153) were purchased from SIGMA.
Displacement of fluorescein labeled tracer 2-(6-hydroxy-3-oxo-3H-xanthen-9-yl)-5-({[5-(4-{[7-(hydroxycarbamoyl)-2H,3H,4H,5H-thieno[2,3-f][1,4]oxazepine-4-carbonyl]amino}phenoxy)pentyl]carbamothioyl}amino)benzoic acid from HDAC6 was measured in vitro using a TR-FRET assay. The assays were performed in 1536-well plates in a total volume of 6 μL in assay buffer consisting of 50 mM HEPES pH 7.5, 50 mM NaCl, 50 mM KCl, 0.01% Triton X-100, 0.5 mM GSH, 0.03% BGG, 0.01% BSA.
For concentration response curves (IC50 determination), Compounds were serially diluted 3-fold from 2 mM highest concentration to generate a 10-point concentration gradient. To perform the assay, 30 nL of compound gradient solutions were transferred to the assay plate using the ECHO acoustic dispenser to achieve a final concentration range of 10 μM to 0.000508 uM in 6 μL reaction. 3 μL of HDAC6 in assay buffer were added to the assay plates and pre-incubate at room temp. for 30 mins. After pre-incubation, 3 μL of the tracer and TB-anti-GST antibody mix were added to the assay plates. The final concentrations of HDAC6, tracer, and TB-anti-GST antibody for each assay are 2 nM, 1 nM, and 0.5 nM, respectively. Binding reactions were equilibrated at 25° C. for an additional 6 hours, then read in endpoint mode on the BMG PheraStar (BMG labtech) equipped with a 337-520-490 optical module. The ratio of the 520/490 nm emission was calculated to determine the relative amounts of HDAC6 and tracer complex residue in each well.
The percent inhibition of HDAC6 (IC50) was calculated according to the following equation.
As set forth in Table 1, “A” indicates an HDAC6 IC50 value of less than 200 nM; “B” indicates an HDAC6 IC50 value of greater than or equal to 200 nM and less than 500 nM; and “C” indicates an HDAC6 IC50 value of greater than or equal to 500 nM and less than 5 μM.

Chain of HDAC6 (Q9UBN7 whole entry): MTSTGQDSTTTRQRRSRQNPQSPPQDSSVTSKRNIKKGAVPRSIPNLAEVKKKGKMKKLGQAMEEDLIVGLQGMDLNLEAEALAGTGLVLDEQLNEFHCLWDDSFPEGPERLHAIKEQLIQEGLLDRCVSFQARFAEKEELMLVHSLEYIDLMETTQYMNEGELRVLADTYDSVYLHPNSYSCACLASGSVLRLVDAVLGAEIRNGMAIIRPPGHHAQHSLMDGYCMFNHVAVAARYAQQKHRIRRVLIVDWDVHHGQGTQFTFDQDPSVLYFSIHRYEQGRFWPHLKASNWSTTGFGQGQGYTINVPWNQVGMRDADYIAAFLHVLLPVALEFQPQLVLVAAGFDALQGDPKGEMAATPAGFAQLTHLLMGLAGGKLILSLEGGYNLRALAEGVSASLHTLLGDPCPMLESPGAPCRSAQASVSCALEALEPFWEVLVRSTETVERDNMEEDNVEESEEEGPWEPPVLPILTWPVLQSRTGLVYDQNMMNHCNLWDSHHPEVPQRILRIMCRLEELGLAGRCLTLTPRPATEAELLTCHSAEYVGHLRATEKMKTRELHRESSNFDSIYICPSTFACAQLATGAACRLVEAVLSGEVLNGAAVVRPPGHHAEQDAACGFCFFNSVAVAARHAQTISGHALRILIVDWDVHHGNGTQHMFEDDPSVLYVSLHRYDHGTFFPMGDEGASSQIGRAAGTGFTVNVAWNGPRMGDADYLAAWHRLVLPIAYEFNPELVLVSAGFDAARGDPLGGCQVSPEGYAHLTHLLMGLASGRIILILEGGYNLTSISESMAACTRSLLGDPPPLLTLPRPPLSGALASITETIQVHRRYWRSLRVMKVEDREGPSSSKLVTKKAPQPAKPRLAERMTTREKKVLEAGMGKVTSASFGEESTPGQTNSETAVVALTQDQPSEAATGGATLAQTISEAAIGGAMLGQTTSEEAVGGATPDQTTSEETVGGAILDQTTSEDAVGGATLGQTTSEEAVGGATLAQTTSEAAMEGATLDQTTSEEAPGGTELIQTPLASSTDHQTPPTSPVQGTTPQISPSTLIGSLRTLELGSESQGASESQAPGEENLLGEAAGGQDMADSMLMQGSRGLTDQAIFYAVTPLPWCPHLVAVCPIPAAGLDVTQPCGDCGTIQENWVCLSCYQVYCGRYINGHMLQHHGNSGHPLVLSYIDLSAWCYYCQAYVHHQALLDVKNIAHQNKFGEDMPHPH

| Structure (SMILES) | pIC50 |
| --- | --- |
| CC(=O)N1Cc2c(F)cc(-c3noc(C(F)(F)F)n3)cc2OC[C@@H]1C [Compound 25, 1-[(3S)-6-fluoro-3-methyl-8-[5-(trifluoromethyl)-1,2,4-oxadiazol-3-yl]-3,5-dihydro-2H-1,4-benzoxazepin-4-yl]ethanone] | 6.30 to 6.70 |
| FC(F)(F)c1nc(-c2ccc3c(c2)OCCN(c2nc4ccccc4[nH]2)C3)no1 [Compound 51, 4-(1H-benzo[d]imidazol-2-yl)-8-(5-(trifluoromethyl)-1,2,4-oxadiazol-3-yl)-2,3,4,5-tetrahydrobenzo[f][1,4]oxazepine] | > 6.70 |
| CC(C)(C)C(=O)N1Cc2ccc(-c3nnc(C(F)F)o3)cc2OC[C@@H]1c1ccccc1 [Compound 22, (S)-1-(8-(5-(difluoromethyl)-1,3,4-oxadiazol-2-yl)-3-phenyl-2,3-dihydrobenzo[f][1,4]oxazepin-4(5H)-yl)-2,2-dimethylpropan-1-one] | > 6.70 |
| CC(C)(C)C(=O)N1Cc2ccc(-c3noc(C(F)(F)F)n3)cc2OC[C@@H]1c1ccccc1 [Compound 23, 2,2-dimethyl-1-[(3S)-3-phenyl-8-[5-(trifluoromethyl)-1,2,4-oxadiazol-3-yl]-3,5-dihydro-2H-1,4-benzoxazepin-4-yl]propan-1-one] | 6.30 to 6.70 |
| C[C@H]1COc2cc(-c3noc(C(F)(F)F)n3)cc(F)c2CN1C(=O)CCN(C)C [Compound 42, (S)-3-(dimethylamino)-1-(6-fluoro-3-methyl-8-(5-(trifluoromethyl)-1,2,4-oxadiazol-3-yl)-2,3-dihydrobenzo[f][1,4]oxazepin-4(5H)-yl)propan-1-one] | 6.30 to 6.70 |
| CC(C)(C)C(=O)N1CCOc2cc(-c3noc(C(F)(F)F)n3)cc(F)c2C1 [Compound 29, 1-{6-fluoro-8-[5-(trifluoromethyl)-1,2,4-oxadiazol-3-yl]-3,5-dihydro-2H-1,4-benzoxazepin-4-yl}-2,2-dimethylpropan-1-one] | > 6.70 |
| C[C@H]1COc2cc(-c3noc(C(F)(F)F)n3)ccc2CN1C(=O)C1(C)CCOCC1 [Compound 16, (3S)-3-methyl-4-[(4-methyloxan-4-yl)carbonyl]-8-[5-(trifluoromethyl)-1,2,4-oxadiazol-3-yl]-3,5-dihydro-2H-1,4-benzoxazepine] | > 6.70 |
| CC1(C(=O)N2Cc3ccc(-c4noc(C(F)(F)F)n4)cc3OC[C@@H]2c2ccccc2)CCCOC1 (single isomer, unassigned) [Compound 13] | > 6.70 |
| CC(=O)N1CCC(C)(C(=O)N2Cc3c(F)cc(-c4noc(C(F)(F)F)n4)cc3OC[C@@H]2C)CC1 [Compound 48, (S)-1-(4-(6-fluoro-3-methyl-8-(5-(trifluoromethyl)-1,2,4-oxadiazol-3-yl)-2,3,4,5-tetrahydrobenzo[f][1,4]oxazepine-4-carbonyl)-4-methylpiperidin-1-yl)ethan-1-one] | 6.30 to 6.70 |
| COCC1(C(=O)N2Cc3ccc(-c4noc(C(F)(F)F)n4)cc3OC[C@@H]2c2ccccc2)COC1 [Compound 7, (3S)-4-{[3-(methoxymethyl)oxetan-3-yl]carbonyl}-3-phenyl-8-[5-(trifluoromethyl)-1,2,4-oxadiazol-3-yl]-3,5-dihydro-2H-1,4-benzoxazepine] | > 6.70 |
| O=C(C1CCOCC1)N1CCOc2cc(-c3noc(C(F)(F)F)n3)ccc2C1 [Compound 54, 4-[(oxan-4-yl)carbonyl]-8-[5-(trifluoromethyl)-1,2,4-oxadiazol-3-yl]-3,5-dihydro-2H-1,4-benzoxazepine] | 6.30 to 6.70 |
| C[C@H]1COc2cc(-c3noc(C(F)(F)F)n3)cc(F)c2CN1C(=O)C(F)(F)F [Compound 24, (S)-2,2,2-trifluoro-1-(6-fluoro-3-methyl-8-(5-(trifluoromethyl)-1,2,4-oxadiazol-3-yl)-2,3-dihydrobenzo[f][1,4]oxazepin-4(5H)-yl)ethan-1-one] | > 6.70 |
| CC1(C(=O)N2Cc3ccc(-c4noc(C(F)(F)F)n4)cc3OC[C@@H]2c2ccccc2)COC1 [Compound 5, (3S)-4-[(3-methyloxetan-3-yl)carbonyl]-3-phenyl-8-[5-(trifluoromethyl)-1,2,4-oxadiazol-3-yl]-3,5-dihydro-2H-1,4-benzoxazepine] | > 6.70 |
| C[C@H]1COc2cc(-c3noc(C(F)(F)F)n3)ccc2CN1S(=O)(=O)C(C)(C)C [Compound 34, (3S)-3-methyl-4-(2-methylpropane-2-sulfonyl)-8-[5-(trifluoromethyl)-1,2,4-oxadiazol-3-yl]-3,5-dihydro-2H-1,4-benzoxazepine] | 6.30 to 6.70 |
| C[C@H]1COc2cc(-c3noc(C(F)(F)F)n3)cc(F)c2CN1C(=O)C(C)(C)C [Compound 19, 1-[(3S)-6-fluoro-3-methyl-8-[5-(trifluoromethyl)-1,2,4-oxadiazol-3-yl]-3,5-dihydro-2H-1,4-benzoxazepin-4-yl]-2,2-dimethylpropan-1-one] | > 6.70 |
| C[C@H]1COc2cc(-c3noc(C(F)(F)F)n3)cc(F)c2CN1C(=O)CO [Compound 40, 1-[(3S)-6-fluoro-3-methyl-8-[5-(trifluoromethyl)-1,2,4-oxadiazol-3-yl]-3,5-dihydro-2H-1,4-benzoxazepin-4-yl]-2-hydroxyethanone] | 6.30 to 6.70 |
| COCC1(C(=O)N2Cc3c(F)cc(-c4noc(C(F)(F)F)n4)cc3OC[C@@H]2C)CC1 [Compound 31, (3S)-6-fluoro-4-{[1-(methoxymethyl)cyclopropyl]carbonyl}-3-methyl-8-[5-(trifluoromethyl)-1,2,4-oxadiazol-3-yl]-3,5-dihydro-2H-1,4-benzoxazepine] | 6.30 to 6.70 |
| CC1(C(=O)N2Cc3ccc(-c4nnc(C(F)F)o4)cc3OC[C@@H]2c2ccccc2)CCOCC1 [Compound 3, (S)-(8-(5-(difluoromethyl)-1,3,4-oxadiazol-2-yl)-3-phenyl-2,3-dihydrobenzo[f][1,4]oxazepin-4(5H)-yl)(4-methyltetrahydro-2H-pyran-4-yl)methanone] | > 6.70 |
| C[C@H]1COc2cc(-c3noc(C(F)(F)F)n3)ccc2CN1C(=O)C(C)(C)C [Compound 17, 2,2-dimethyl-1-[(3S)-3-methyl-8-[5-(trifluoromethyl)-1,2,4-oxadiazol-3-yl]-3,5-dihydro-2H-1,4-benzoxazepin-4-yl]propan-1-one] | > 6.70 |
| C[C@H]1COc2cc(-c3noc(C(F)(F)F)n3)cc(F)c2CN1C(=O)C1(C)COC1 [Compound 1, (S)-(6-fluoro-3-methyl-8-(5-(trifluoromethyl)-1,2,4-oxadiazol-3-yl)-2,3-dihydrobenzo[f][1,4]oxazepin-4(5H)-yl)(3-methyloxetan-3-yl)methanone] | > 6.70 |
| C[C@H]1COc2cc(-c3noc(C(F)(F)F)n3)cc(F)c2CN1C(=O)c1ccncc1 [Compound 49, (3S)-6-fluoro-3-methyl-4-[(pyridin-4-yl)carbonyl]-8-[5-(trifluoromethyl)-1,2,4-oxadiazol-3-yl]-3,5-dihydro-2H-1,4-benzoxazepine] | 6.30 to 6.70 |
| C[C@H]1COc2cc(-c3noc(C(F)(F)F)n3)cc(F)c2CN1C(=O)Cc1ccncc1 [Compound 46, 1-[(3S)-6-fluoro-3-methyl-8-[5-(trifluoromethyl)-1,2,4-oxadiazol-3-yl]-3,5-dihydro-2H-1,4-benzoxazepin-4-yl]-2-(pyridin-4-yl) ethenone] | > 6.70 |
| CC1Oc2cc(-c3noc(C(F)(F)F)n3)ccc2CNC1=O (centres unmarked) [Compound 50, 2-methyl-8-[5-(trifluoromethyl)-1,2,4-oxadiazol-3-yl]-4,5-dihydro-2H-1,4-benzoxazepin-3-one] | > 6.70 |
